Columns and labels:
AKR1C1 = molecular target: T1, AKR1C1 (Homo sapiens, UniProt Q04828); type: biochemical; conditions: selectivity for AKR1C3 over AKR1C1
T1 sequence (Q04828 1-323): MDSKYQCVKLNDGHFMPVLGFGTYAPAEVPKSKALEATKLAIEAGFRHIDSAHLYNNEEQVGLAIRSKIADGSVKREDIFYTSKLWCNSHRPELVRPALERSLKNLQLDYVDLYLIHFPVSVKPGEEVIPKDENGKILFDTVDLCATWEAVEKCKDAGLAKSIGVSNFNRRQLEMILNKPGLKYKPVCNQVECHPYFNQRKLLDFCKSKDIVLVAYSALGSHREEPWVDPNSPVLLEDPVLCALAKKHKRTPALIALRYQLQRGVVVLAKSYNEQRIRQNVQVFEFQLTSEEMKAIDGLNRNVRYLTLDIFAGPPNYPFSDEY

AKR1C4 = molecular target: T2, AKR1C4 (Homo sapiens, UniProt P17516); type: biochemical; conditions: selectivity for AKR1C3 over AKR1C4
T2 sequence (P17516 1-323): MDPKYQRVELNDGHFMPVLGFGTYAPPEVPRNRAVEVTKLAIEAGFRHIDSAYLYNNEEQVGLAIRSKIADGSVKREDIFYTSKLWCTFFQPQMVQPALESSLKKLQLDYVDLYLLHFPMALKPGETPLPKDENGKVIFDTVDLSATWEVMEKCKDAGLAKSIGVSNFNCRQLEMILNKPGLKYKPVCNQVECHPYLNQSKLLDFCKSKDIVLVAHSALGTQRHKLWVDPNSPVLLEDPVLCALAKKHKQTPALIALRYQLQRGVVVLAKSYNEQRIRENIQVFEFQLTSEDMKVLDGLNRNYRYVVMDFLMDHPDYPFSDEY

COc1ccc2c(c1)c(CC(=O)NS(=O)(=O)C(F)(F)F)c(C)n2C(=O)c1ccc(Cl)cc1 [Compound 15]
IC50 ratio AKR1C1/AKR1C3 (value in parentheses) (AKR1C1): > 135 | IC50 ratio AKR1C4/AKR1C3 (value in parentheses) (AKR1C4): > 135

Reference: paper PMC3638264 (Journal of Medicinal Chemistry, 2013)
